Where “and” joins values, the source holds several entries; their conditions need not be identical. Equal values may be shown once.

We go through eight compounds from the supplement of paper PMC4862054.

Holding throughout (conditions): incubation time: 72 h
In test [1] the test system is HCC1599. The test can be described thus: normalised viability (% of control), CellTiter-Blue; higher = more viable cells (about 100 = DMSO control). The essentials:
(§1)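 Each entry is normalised viability at a single listed concentration within a series. It comes from breast cancer cell lines incubated 72 h with compound in 384-well plates, then measured with CellTiter-Blue fluorescence at 560/590 nm. Every plate was normalised between vehicle (100) and a positive kill control (0).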
(The colour change of resazurin is a common sign of viable cells or microbes.)

For test [2], the system named is Hs578T. The test is described as above. The procedure, abridged:
as §1

Test [3] has as its system MDA-MB-453. Described as above. The procedure, abridged: as §1
The test system of test [4] is HCC1937. Described as above. The essentials: as §1
The test system of test [5] is CAL-85-1. The test is described as above. The procedure, abridged: as §1
Test [6] has as its system MDA-MB-231. Described as above. The essentials: as §1
In test [7] the test system is HCC1143. The test is described as above. The procedure, abridged: as §1
In test [8] the test system is SK-BR-3. The test is described as above. The essentials: as §1
The test system of test [9] is HCC1599. The test can be described thus: normalised response (% of control), CellTiter-Glo; higher = more viable cells (100 = DMSO, 0 = benzethonium chloride kill control). How it is done:
(§2)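 DSRT, 72 h incubation, CellTox Green / CellTiter-Glo readout. Signal is normalised to DMSO and benzethonium chloride controls. Value is the normalised response at the highest dose.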
In general terms: Cellular ATP, detected with luciferase, serves as a proxy for viable cell number.

In the next test the test system is HDQ-P1. Described as above. How it is done: as §2
In a further test the test system is MDA-MB-436. The test is described as above. As for the experimental part:
as §2

The next test concerns BT-474. The test is described as above. As for the experimental part: as §2
A further test deals with MFM-223. Described as above. As for the experimental part:
as §2

A further test deals with CAL-51. Described as above. As for the experimental part: as §2
For test [10], the system named is Hs578T. Described as above. How it is done: as §2
The test system of test [11] is MDA-MB-453. The test is described as above. As for the experimental part:
as §2

Test [12] relates to HCC1937. The test is described as above. How it is done:
as §2

The subject of the next test is CAL-120. The description is as above. How it is done: as §2
The subject of test [13] is CAL-148. The test is described as above. How it is done: as §2
Another test concerns MDA-MB-468. The test is described as above. As for the experimental part:
as §2

Test [14] has as its system CAL-85-1. Described as above. How it is done:
as §2

A further test relates to BT-549. The description is as above. How it is done: as §2
The subject of test [15] is MDA-MB-231. The test is described as above. How it is done: as §2
The subject of test [16] is HCC1143. The description is as above. How it is done: as §2
A further test relates to MCF-10A. Described as above. How it is done:
as §2

A further test deals with DU-4475. The test is described as above. As for the experimental part:
as §2

Test [17] deals with SK-BR-3. The description is as above. How it is done: as §2
In test [18] the test system is CAL-148. As to the kind of experiment: normalised viability (% of control), CellTiter-Blue; higher = more viable cells (about 100 = DMSO control). As for the experimental part: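 DSRT, CellTiter-Blue viability, 72 h incubation. Signal is normalised to DMSO and benzethonium chloride controls. Value is the normalised response at dose 9.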

As to `Oc1ncnc2[nH]ncc12` [Allopurinol], the normalised viability in the test with HCC1599 [1] (100 nM) turned out to be 98.5%; in the test with Hs578T [2] (100 nM), 94%; in the test with MDA-MB-453 [3] (10 nM), 110%; in the test on HCC1937 [4] (100 nM), 94.5%; in the test on CAL-85-1 [5] (10 nM) it was 102%; with MDA-MB-231 [6] (100 nM), 109%. In addition, the normalised viability worked out at 113% with HCC1143 [7] (100 nM) and 103% with SK-BR-3 [8] (100 nM).

For the compound `O=C1CN2Cc3c(ccc(Cl)c3Cl)N=C2N1` [Anagrelide], the normalised viability in the test on HCC1599 [1] (100 nM) stood at 104%; in the test on Hs578T [2] (100 nM), 88%; with MDA-MB-453 [3] (10 nM), 109%; in the test with HCC1937 [4] (100 nM), 94.9%; in the test with CAL-85-1 [5] (10 nM), 91.6%; in the test on MDA-MB-231 [6] (100 nM), 99.2%. Moreover, the normalised viability in the test on HCC1143 [7] (100 nM) was found to be 84.8%; in the test on SK-BR-3 [8] (100 nM), 60.9%.

Turning to `Nc1nc2[nH]cnc2c(=S)[nH]1` [Thioguanine], the normalised viability with HCC1599 [1] (100 nM) was determined as 103%; with Hs578T [2] (100 nM), 89.9%; in the test with MDA-MB-453 [3] (10 nM), 109%; with HCC1937 [4] (100 nM), 98.5%; with CAL-85-1 [5] (10 nM), 102%; in the test on MDA-MB-231 [6] (100 nM) it was 89.3%. Moreover, the normalised viability was determined as 82.7% with HCC1143 [7] (100 nM) and 87.5% in the test with SK-BR-3 [8] (100 nM).

On to `C[C@]12CC[C@@H]3c4ccc(OC(=O)N(CCCl)CCCl)cc4CC[C@H]3[C@@H]1CC[C@@H]2O` [Estramustine], for which the normalised viability in the test on HCC1599 [1] (9.9 nM) amounted to 91.4%; with Hs578T [2] (9.9 nM), 102%; in the test on MDA-MB-453 [3] (0.99 nM), 100%; in the test with HCC1937 [4] (9.9 nM), 101%; with CAL-85-1 [5] (0.99 nM) it was 111%; in the test on MDA-MB-231 [6] (9.9 nM) it was 93.8%. The normalised viability with HCC1143 [7] (9.9 nM) stood at 105%; in the test on SK-BR-3 [8] (9.9 nM), 106%.

On to `CC(=O)O[C@@]12CO[C@@H]1C[C@H](O)[C@@]1(C)C(=O)[C@H](O)C3=C(C)[C@@H](OC(=O)[C@H](O)[C@@H](NC(=O)OC(C)(C)C)c4ccccc4)C[C@@](O)([C@@H](OC(=O)c4ccccc4)[C@H]21)C3(C)C` [Docetaxel] (1000 nM), for which the normalised response came out at 29.6% in the test with HCC1599 [9]; 64.2% in the test on HDQ-P1; 32.8% in the test with MDA-MB-436; 39.3% in the test on BT-474; 48.9% with MFM-223; 32.9% in the test on CAL-51. Further, the normalised response was 13.6% in the test with Hs578T [10]; 44.4% with MDA-MB-453 [11]; 73.8% in the test with HCC1937 [12]; 55.3% with CAL-120; 45.5% with CAL-148 [13]; 34.9% with MDA-MB-468. The normalised response turned out to be 28.9% with CAL-85-1 [14]; 17.1% with BT-549; 28.5% with MDA-MB-231 [15]; 38.3% in the test with HCC1143 [16]; 48% with MCF-10A; 44% with DU-4475. Besides, the normalised response in the test on SK-BR-3 [17] turned out to be 10.7%. For the same compound, in the test on CAL-148 [18], the normalised viability was 23.1% and 21.2%.

As to `COc1cc2c(cc1O)CC[C@@H]1[C@@H]2CC[C@]2(C)[C@@H](O)CC[C@@H]12` [2-methoxyestradiol] (10000 nM), the normalised response in the test on HCC1599 [9] was found to be 31.6%; with HDQ-P1 it was 73.7%; in the test on MDA-MB-436 it was 44.7%; in the test on BT-474 it was 58.1%; in the test on MFM-223, 54.4%; in the test on CAL-51, 31.1%. Moreover, the normalised response with Hs578T [10] was determined as 25.4%; with MDA-MB-453 [11], 59.7%; with HCC1937 [12], 68.5%; with CAL-120, 62.6%; in the test on CAL-148 [13], 39.8%; in the test with MDA-MB-468, 34.4%. Also, the normalised response in the test with CAL-85-1 [14] stood at 33.3%; with BT-549, 48.8%; with MDA-MB-231 [15], 51.9%; in the test on HCC1143 [16], 49.3%; with MCF-10A it was 67.1%; in the test with DU-4475 it was 42.2%. This compound came in with a normalised response in the test with SK-BR-3 [17] of 17.1%. Also, the normalised viability with CAL-148 [18] worked out at 58.1%.

In the case of `CC[C@@H]1C(=O)OC[C@@H]1Cc1cncn1C` [Pilocarpine] (40000 nM), the normalised response in the test with HCC1599 [9] came out at 104%; in the test on HDQ-P1, 91.9%; in the test with MDA-MB-436 it was 89.7%; in the test with BT-474, 91.6%; with MFM-223 it was 97.6%; with CAL-51 it was 134%. For the same compound, the normalised response in the test on Hs578T [10] was 99%; in the test on MDA-MB-453 [11] it was 92.7%; in the test on HCC1937 [12], 96.7%; in the test on CAL-120, 91.2%; with CAL-148 [13], 88.6%; in the test with MDA-MB-468, 96%. For the same compound, the normalised response in the test with CAL-85-1 [14] was found to be 94.6%; in the test on BT-549, 102%; in the test with MDA-MB-231 [15], 93.4%; with HCC1143 [16] it was 89.6%; in the test on MCF-10A, 99.1%; with DU-4475, 95.7%. Also, the normalised response in the test with SK-BR-3 [17] was 102%. The normalised viability in the test on CAL-148 [18] is 73.2%.

For the compound `Cn1cnc2c(F)c(Nc3ccc(Br)cc3Cl)c(C(=O)NOCCO)cc21` [Selumetinib], the normalised viability in the test with HCC1599 [1] (100 nM) was determined as 96.6%; in the test on Hs578T [2] (100 nM), 68.4%; in the test with MDA-MB-453 [3] (10 nM) it was 108%; in the test with HCC1937 [4] (100 nM) it was 97.9%; with CAL-85-1 [5] (10 nM), 98.6%; in the test with MDA-MB-231 [6] (100 nM) it was 61.5%. For the same compound, the normalised viability with HCC1143 [7] (100 nM) worked out at 63.9%; with SK-BR-3 [8] (100 nM) it was 65.7%.
